Results: patent US20050079232A1, “Composition for promotion of bone growth and maintenance of bone health” (priority 2001, published 2005)

How the values were obtained:
BMP-2 promoter = experiment: BMP-2 luciferase assay (BMP-2 gene reporter assay, bone formation); format: cell-based; settings: 10^−6M; result in words
Experimental: BMP-2 luciferase assay—The activity of the extracts was determined using 2T3 cells containing the BMP-2 promoter operatively linked to the luciferase gene. An increase in luciferase activity in cell lysates reflects an increase in BMP-2 promoter activity. The extracts were assayed at an initial dilution of 100 μg/ml with ½ dilutions down to 0.2 μg/ml. BMP-2 promoter activity was measured by measuring the luciferase activity in cell extracts.

BMP-2 = experiment: Endogenous BMP-2 mRNA expression in hPOB-tert cells by RT-PCR; format: cell-based, human; settings: 0.5 μg/ml, positive control
Experimental: The plants found positive for BMP-2 induction in example 1 were further tested in a human periosteal/preosteoblast cell line, hPOB-tert for their ability to induce the endogenous expression of BMP-2. This test in osteoblast cells confirmed the results shown in example 1.
[…] Total RNA was extracted with TRIzol Reagent (Gibco). 10 μg RNA were reverse transcribed using the 1st Strand cDNA Synthesis Kit (Boehringer). BMP-2 cDNA sequences were amplified for 35 cycles at an annealing temperature of 55° C. using specific oligonucleotide primers (5′: […]; 3′: […]). PCR products were separated by agarose gel electrophoresis and detected by ethidium bromide staining. Quantification was performed using NIH Image Software and normalizing results with Actin as house-keeping gene.

| stimulation of BMP-2 (promoter activity) (BMP-2 promoter) | SMILES | induction of BMP-2 (BMP-2) [fold] |
| --- | --- | --- |
| stimulated BMP-2 | O=c1c(-c2ccc(O)cc2)coc2cc(O)ccc12 [daidzein] |  |
| stimulated BMP-2 | O=c1c(-c2ccc(O)cc2)coc2cc(O)cc(O)c12 [genistein] |  |
|  | CC[C@H](C)C(=O)O[C@H]1C[C@@H](C)C=C2C=C[C@H](C)[C@H](CC[C@@H]3C[C@@H](O)CC(=O)O3)[C@H]21 [lovastatin] | 2.5 |
